Assay results from patent publication US7999011B2, “Method for cardioprotection and neuroprotection by intravenous administration of halogenated volatile anesthetics” (Baxter International Inc., priority 2002, dated 2011).
“Also recorded” adds a separate entry of the source.

Assays:
End-tidal gas analysis = format: in vivo, rabbit; conditions: for EtHalogenated: end-tidal
Method: (§1) Baseline measurements of systemic hemodynamics, arterial blood gas tensions, and blood concentrations of anesthetic agent were performed 30 min after instrumentation was completed. Rabbits received 0.9% saline, drug lipid vehicle (10 ml/h), or intravenous volatile anesthetic (10 ml/h) for 30 min. Infusions were discontinued 30 min prior to coronary occlusion (memory period). Blood concentrations of anesthetic agents were performed at baseline, at the end of anesthetic infusion, and at the end of the memory period just before coronary occlusion). HVA concentrations in blood were determined by gas chromatographic (GC) analysis. All rabbits underwent a 30 min LAD occlusion followed by 3 h reperfusion.
(§2) Statistical analysis of data within and between groups was performed with analysis of variance (ANOVA) for repeated measures followed by Student-Newman-Keuls test. Changes between groups were considered statistically significant when the p value was less than 0.05. All data are expressed as mean±SEM.

[1] = Systemic hemodynamics during infarct experiment; format: in vivo, rabbit
Method: Male New Zealand white rabbits weighing between 2.5 and 3.0 kg were anesthetized with intravenous sodium pentobarbital (30 mg/kg). Additional doses of pentobarbital were titrated as required to assure that pedal and palpebral reflexes were absent throughout the experiment. A tracheotomy was performed through a ventral midline incision, and the trachea was cannulated. The rabbits were ventilated with positive pressure using an air-oxygen mixture (FiO2=0.33). […] Body temperature was maintained with a heating blanket. Heparin-filled catheters were inserted into the right carotid artery and the left jugular vein for measurement of arterial blood pressure and fluid or drug administration, respectively. Maintenance fluids consisted of 0.9% saline (15 ml/kg/h) that were continued for the duration of the experiment.
(§3) A left thoracotomy was performed at the fourth intercostal space, and the heart was suspended in a pericardial cradle. A prominent branch of the left anterior descending coronary artery (LAD) was selected, and a silk ligature was placed around this artery approximately halfway between the base and apex for the production of coronary artery occlusion and reperfusion in myocardial infarct size experiments. Each rabbit was anticoagulated with 500 U of heparin immediately before LAD occlusion. Coronary artery occlusion was verified by the presence of epicardial cyanosis and regional dyskinesia in the ischemic zone, and reperfusion was confirmed by observing an epicardial hyperemic response. Hemodynamics were continuously recorded on a polygraph throughout experimentation. After the surgical preparation, 30 min of stabilization were allowed.
as §1, §2

[2] = Literature MAC values in rabbits and 1 MAC-equivalent blood concentration; format: in vivo; conditions: 37° C., rabbit; x=λn
Method: “Minimum alveolar concentration (MAC)”, as is known in the art, is the alveolar concentration of an anesthetic, administered by inhalation at a pressure of 1 atmosphere, that prevents movement in 50% of patients in response to a painful stimuli. The MAC is age-dependent; it may be affected by a patient's medical condition; and it may also be affected by other pharmaceutical agents that are administered to the patient. In the context of intravenous administration of HVAs, the term “MAC” or “MAC-equivalent” is intended to mean an intravenous dose which produces the same blood plasma concentration of an anesthetic agent as that attained by inhalational administration of a gaseous concentration of anesthetic which prevents such movement in 50% of patients.
Blood concentrations as measured by GC were converted to their MAC-equivalent values by calculations described below. Initially “n”, or the number of moles of HVA in 1 L of alveolar gas during exposure to 1.0 MAC of the HVA was calculated.
The number of moles of the HVA in 1 L at 37° C. at 1 MAC in rabbits was then used to determine the concentration of the HVA present in blood by using known blood/gas partition values (also known as λ). […] The value for “x” (or the equivalent blood concentration of the HVA at 1 MAC at 37° C. in rabbit) is then determined by the equation: x=λn

[3] = test system: myocardial ischemia-reperfusion injury; experiment: Myocardial infarct size following ischemia and reperfusion (30 min LAD occlusion, 3 h reperfusion); format: in vivo, rabbit; conditions: for infarct size plotted as a function of area at risk, versus control regression line: FIGS. 4A, 4B, 5A, 5B; for cardioprotection (protection against myocardial ischemia-reperfusion injury): i.v. emulsion prior to coronary artery occlusion; for IF/AAR: infarct size as percentage of area at risk, i.v. emulsion 10 ml/h 30 min, stopped 30 min before occlusion; for IF WT: infarct weight
Method: These experiments were designed to characterize the effects of different HVAs (enflurane, isoflurane, sevoflurane, and desflurane) administered intravenously in an emulsion on myocardial infarct size following ischemia and reperfusion in rabbits.
Male New Zealand white rabbits weighing between 2.5 and 3.0 kg were anesthetized with intravenous sodium pentobarbital (30 mg/kg). Additional doses of pentobarbital were titrated as required to assure that pedal and palpebral reflexes were absent throughout the experiment. A tracheotomy was performed through a ventral midline incision, and the trachea was cannulated. The rabbits were ventilated with positive pressure using an air-oxygen mixture (FiO2=0.33). Arterial blood gas tensions and acid-base status were maintained within a normal physiological range (pH 7.35-7.45, PaCO2 25-40 mmHg, and PaO2 90-150 mmHg) by adjusting the respiratory rate or tidal volume. Body temperature was maintained with a heating blanket. Heparin-filled catheters were inserted into the right carotid artery and the left jugular vein for measurement of arterial blood pressure and fluid or drug administration, respectively. Maintenance fluids consisted of 0.9% saline (15 ml/kg/h) that were continued for the duration of the experiment.
as §3
The experimental design for the experiments is illustrated in FIG. 1. Rabbits were randomly assigned to one of six experimental groups: a control group (0.9% saline infusion), a vehicle group (drug lipid vehicle), or one of four anesthetic groups (emulsified desflurane, isoflurane, enflurane, or sevoflurane). The vials of anesthetics were stored at 4° C. as prepared in Example 1. After opening, the vial was left in a water bath at 37° C. for 2 h. Anesthetics were directly poured into the syringe without using negative pressure suction.
as §1
At the end of each experiment, the LAD was reoccluded and 3 ml of Patent blue dye was injected intravenously. The left ventricular area at risk for infarction was separated from surrounding normal areas (stained blue), and the two regions were incubated at 37° C. for 20 to 30 min in 1% 2,3,5-triphenyltetrazolium chloride in 0.1 M phosphate buffer adjusted to pH 7.4. After overnight storage in 10% formaldehyde, infarcted and noninfarcted myocardium within the area at risk were carefully separated and weighed. Infarct size was expressed as a percentage of the area at risk. […]

[4] = i.v. emulsion 10 ml/h for 30 min, Baseline

## FC(F)OC(Cl)C(F)(F)F (centres unmarked) [ISO, isoflurane]
End-tidal gas analysis; Baseline
  EtCO2: 34 ± 1 mmHg
  EtHalogenated: 0%
End-tidal gas analysis; Infusion
  EtCO2: 34 ± 1 mmHg
  EtHalogenated: 0.31 ± 0.02%
End-tidal gas analysis; Ischemia 30 min
  EtCO2: 30 ± 2 mmHg
  EtHalogenated: 0.00 ± 0.00%
End-tidal gas analysis; Memory
  EtCO2: 33 ± 2 mmHg
  EtHalogenated: 0.02 ± 0.01%
End-tidal gas analysis; Reperfusion 1 h
  EtCO2: 27 ± 2 mmHg
  EtHalogenated: 0.00 ± 0.00%
End-tidal gas analysis; Reperfusion 2 h
  EtCO2: 28 ± 2 mmHg
  EtHalogenated: 0.00 ± 0.00%
End-tidal gas analysis; Reperfusion 3 h
  EtCO2: 30 ± 2 mmHg
  EtHalogenated: 0.00 ± 0.00%
[1]; Baseline
  MAP: 64 ± 5 mmHg
  RPP: 17.7 ± 2 bpm × mmHg × 10^3
[1]; Infusion
  HR: 227 ± 14 bpm
  MAP: 57 ± 6 mmHg
  RPP: 16.2 ± 2.2 bpm × mmHg × 10^3
[1]; Infusion, listed as isoflurane
  MAP: decreased
[1]; Ischemia 30 min
  HR: 220 ± 11 bpm
  MAP: 54 ± 5 mmHg
  RPP: 14.3 ± 1.6 bpm × mmHg × 10^3
[1]; Memory
  HR: 229 ± 10 bpm
  MAP: 62 ± 6 mmHg
  RPP: 16.7 ± 2 bpm × mmHg × 10^3
[1]; Reperfusion 1 h
  HR: 212 ± 4 bpm
  MAP: 52 ± 3 mmHg
  RPP: 13.3 ± 0.8 bpm × mmHg × 10^3
[1]; Reperfusion 1 h, listed as isoflurane
  RPP: decreased
[1]; Reperfusion 2 h
  HR: 201 ± 6 bpm
  MAP: 54 ± 3 mmHg
  RPP: 13.2 ± 1 bpm × mmHg × 10^3
[1]; Reperfusion 3 h
  HR: 195 ± 7 bpm
  MAP: 58 ± 3 mmHg
  RPP: 13.5 ± 1 bpm × mmHg × 10^3
[1]; [4]
  HR: 240 ± 9 bpm
[2]
  1 MAC-Equivalent Blood Concentration at 1 MAC ("x"): 1.06 mM
[3]
  infarct size plotted as a function of area at risk, versus control regression line: infarcts were smaller than in the control group
  cardioprotection (protection against myocardial ischemia-reperfusion injury): provided protection against myocardial ischemia-reperfusion injury; also recorded: adequate protection against myocardial ischemia-reperfusion injury; also recorded: significant reduction in the myocardial infarct size
  IF/AAR: 18.1 ± 2.6 %
  IF WT: 0.18 ± 0.03 g

## FC(F)OC(F)C(F)(F)F (centres unmarked) [DES, desflurane]
End-tidal gas analysis; Baseline
  EtCO2: 31 ± 2 mmHg
  EtHalogenated: 0%
End-tidal gas analysis; Infusion
  EtCO2: 30 ± 2 mmHg
  EtHalogenated: 0.37 ± 0.03 %
End-tidal gas analysis; Ischemia 30 min
  EtCO2: 26 ± 3 mmHg
  EtHalogenated: 0.01 ± 0.00%
End-tidal gas analysis; Memory
  EtCO2: 28 ± 3 mmHg
  EtHalogenated: 0.03 ± 0.01%
End-tidal gas analysis; Reperfusion 1 h
  EtCO2: 29 ± 4 mmHg
  EtHalogenated: 0.00 ± 0.00%
End-tidal gas analysis; Reperfusion 2 h
  EtCO2: 28 ± 3 mmHg
  EtHalogenated: 0.00 ± 0.00%
End-tidal gas analysis; Reperfusion 3 h
  EtCO2: 29 ± 3 mmHg
  EtHalogenated: 0.00 ± 0.00%
[1]; Baseline
  MAP: 71 ± 8 mmHg
[1]; Infusion
  HR: 253 ± 9 bpm
  MAP: 67 ± 9 mmHg
  RPP: 20.4 ± 2.8 bpm × mmHg × 10^3
[1]; Ischemia 30 min
  HR: 228 ± 7 bpm
  MAP: 53 ± 8 mmHg
  RPP: 14.5 ± 2 bpm × mmHg × 10^3
[1]; Memory
  HR: 231 ± 9 bpm
  MAP: 58 ± 10 mmHg
  RPP: 16.3 ± 3 bpm × mmHg × 10^3
[1]; Memory, listed as desflurane
  MAP: decrease in mean arterial pressure
[1]; Reperfusion 1 h
  HR: 201 ± 14 bpm
  MAP: 54 ± 7 mmHg
  RPP: 12.4 ± 0.4 bpm × mmHg × 10^3
[1]; Reperfusion 1 h, listed as desflurane
  RPP: decreased
[1]; Reperfusion 2 h
  HR: 216 ± 6 bpm
  MAP: 58 ± 8 mmHg
  RPP: 15 ± 2.1 bpm × mmHg × 10^3
[1]; Reperfusion 3 h
  HR: 219 ± 7 bpm
  MAP: 54 ± 5 mmHg
  RPP: 14.2 ± 1.4 bpm × mmHg × 10^3
[1]; [4]
  HR: 261 ± 11 bpm
[2]
  1 MAC-Equivalent Blood Concentration at 1 MAC ("x"): 1.38 mM
[3]
  infarct size plotted as a function of area at risk, versus control regression line: infarct size comparable to controls
  cardioprotection (protection against myocardial ischemia-reperfusion injury): unable to confer cardioprotection; also recorded: did not confer cardioprotection
  IF/AAR: 38.5 ± 6.7%
  IF WT: 0.50 ± 0.15 g
